Legend:
[1] = test system: DT40, chicken B lymphoma; assay: DNA flow cytometry of cell cycle arrest, DT40; type: cell-based; conditions: 100 μM, 48 hour
Procedure: Exponentially growing tumor cells were cultured at 1×10^6 cells/ml in clonogenic medium (RPMI 1640 medium +1% penicillin/streptomycin +10% heat-inactivated fetal bovine serum, 2 mML-glutamine, and 10 mM Hepes buffer) in the presence or absence of 100 μM compound 003 for 48 hour at 37° C., 5% CO2. At 48 h, cells were washed two times in fresh clonogenic medium, trypsinized, fixed in ice cold ethanol and labeled with propidium iodide to quantify their DNA content, as described previously (See, for example, Navara, et al., 2001, Anticancer Drugs. 12:369). Quantitative DNA analysis was performed on a Becton Dickenson Calibur flow cytometer equipped with a Consort 40 computer using the COTFIT program, which includes CELLCY, a cell cycle distribution function that fits DNA content histograms and calculates-the percentages of cells in G, S, and GM phases of the cell cycle, as described, for example, in Uckun et al., 1996, J Biol Chem. 271, 6389.

[2] = test system: MMTV/Neu transgenic mice (spontaneous breast cancer); assay: Murine model of Her2 positive breast cancer, virgin MMTV/Neu transgenic mice; type: in vivo
Excerpt: Overexpression of the wild type Neu in the mammary glands of transgenic mice induces metastatic breast cancer. Accordingly, in the MMTV/Neu transgenic strain, the wild-type neu is overexpressed in the mammary gland under the control of the MMTV long terminal repeat. This animal model has been used to analyze the Her2/neu overexpression in breast epithelia, as well as the efficacy of new therapeutic approaches to prevent or treat Her2/neu overexpressing malignancies.
MMTV/Neu transgenic mice were treated with Compound 003 that was added to the daily food of the mice at an average daily dose level of 50 mg/kg/day for the duration of the experiment. Mice were screened for the tumor formation every other day. Tumor-free survival was analyzed using life table statistics as previously reported. The protective anti-cancer activity of Compound 003 was evaluated according to the rise of the survival rate and prolongation of the tumor-free survival of the experimental animals as compared with the control animals. Statistical Significance was determined using the Kaplan Meier Log-Rank test.
Neu transgenic mice were mated to FVB non-transgenic mice, and heterozygous neu transgenic offspring were identified by PCR analysis. A total of 62 female neu transgenic mice were identified from the offspring. These transgenic mice were used to examine the effects of a nontoxic dose level of Compound 003 (50 mg/kg/day) on spontaneous breast cancer development in two independent experiments.
In the first experiment, 30 virgin transgenic mice were used. Treatments were initiated when female mice were 6 weeks of age. Fifteen of the 15 vehicle treated control transgenic mice developed breast cancer with a median cancer-free survival time of 224 days (Mean=253±23 days) (FIG. 7, FIG. 8A&B). At 340 days, only 20% of the mice were tumor-free and by 480 days all had developed breast cancer. The mammary gland tumors were excised, paraffin-embedded and sectioned for H+E staining. A representative tumor section from a neu transgenic mouse is shown in panel C of FIG. 8. […]

[3] = test system: Microsomal or cytosolic fractions of Nalm6 cells; assay: Enzyme kinetics of Compound 003 metabolism in subcellular fractions, Nalm6; type: in vitro ADME, human
Procedure: 1−3×10^8 Nalm6 and BT20 cells were washed with PBS, resuspended in homogenizing buffer containing 10 mM Tris-HCl (pH 7.4) and 250 mM sucrose. Cells were sonicated and spun at 10,000×g, and the resulting supernatant was centrifuged again at 100,000×g to isolate microsomal and cytosolic fractions. The microsomal pellet was resuspended in a buffer containing 10 mM Tris-HCl (pH 7.4), 250 mM sucrose, 1 mM EDTA, and 20% glycerol. Microsomes or cytosols of Nalm6 (80 μg. and 86 μg, respectively) and BT20 cells (59 μg and 160 μg, respectively) were preincubated with or without 1 mM paraoxon in Tris-HCl buffer (pH 7.4) in a total volume of 250 μl for 10 minutes; 1. mM COMPOUND 003 was then added to the incubation mixture, and the reactions were allowed to proceed for another 30 minutes and terminated by addition of 125 μl of acetone. Protein precipitation was then removed by centrifugation; 100 μl of the supernatant was injected directly into the HPLC.
2.2.9 Enzyme Kinetics of Compound 003 Metabolism Microsomal or cytosolic fractions of Nalm6 and BT20 cells were incubated with COMPOUND 003 at various concentrations from 10 μM to 1.2 mM in similar reaction conditions as described above, except without the inhibitor. The reactions were allowed to proceed for 40 minutes. Km and Vmax in the Michaelis-Menten model were estimated by WinNonlin program (Scientific Consulting, Inc.)

## COC(=O)C(C)NP(=O)(OCC1OC(n2cc(C)c(=O)[nH]c2=O)CC1N=[N+]=[N-])Oc1ccc(OC)cc1 (centres unmarked) [Compound 003, 3′-azidothymidine 5′-[p-methoxyphenylmethoxyalaninyl phosphate]]
[1]
  cell cycle arrest: caused G2 arrest
[2]; 50 mg/kg/day in food, vehicle 224 days, P=0.0007
  median cancer-free survival: 455 days
[2]; 50 mg/kg/day, at 340 days, vehicle 20±10%
  proportion of mice cancer-free: 93±7%
[2]; 50 mg/kg/day, at 480 days, when all vehicle mice had breast cancer
  proportion of mice still cancer-free: one third
[3]; cytosolic fraction
  Km: 765 µM
  Vmax: 541 pmol/mg/min
[3]; microsomal fraction
  Km: 163 µM
  Vmax: 82.3 pmol/mg/min

— patent US20060046972A1, “Cytotoxic nucleoside analog compound 003 for treating cancer” (Parker Hughes Institute, priority 2004, published 2006)
